Laboratory results published in patent publication US10259833B2, “Natural lipids containing non-oxidizable fatty acids” (Bergen Teknologioverføring AS, priority 2013, dated 2019).
Blank lines part the entries; values can stand above or below the compound they belong to.

Tests used:
[1] = degradation time in vivo of ω-oxidation-blocked fatty acid analogue; conditions: triple bond at the methyl end blocks ω-oxidation
Source text: ω-oxidation is believed to be the main pathway for degradation of the fatty acid analogues as described with a block in the X position. Fatty acid analogues in which R′ was changed by introducing a triple bond at the methyl end of the fatty acid analogue block ω-oxidation. […] Thus, this modification finds use in embodiments of the technology to potentiate the effects of the β-oxidizable fa acid analogues by further slowing down their breakdown.

[2] = moderate doses, within days of treatment; cited from earlier work
acyl-CoA oxidase = conditions: substance alone; cited from earlier work
[3] = TTA alone; cited from earlier work
[4] = rats, 12 weeks; cited from earlier work
PPARα = target: T1, PPARα (Homo sapiens, UniProt Q07869); conditions: cited from earlier work
T1 sequence (Q07869 1-468): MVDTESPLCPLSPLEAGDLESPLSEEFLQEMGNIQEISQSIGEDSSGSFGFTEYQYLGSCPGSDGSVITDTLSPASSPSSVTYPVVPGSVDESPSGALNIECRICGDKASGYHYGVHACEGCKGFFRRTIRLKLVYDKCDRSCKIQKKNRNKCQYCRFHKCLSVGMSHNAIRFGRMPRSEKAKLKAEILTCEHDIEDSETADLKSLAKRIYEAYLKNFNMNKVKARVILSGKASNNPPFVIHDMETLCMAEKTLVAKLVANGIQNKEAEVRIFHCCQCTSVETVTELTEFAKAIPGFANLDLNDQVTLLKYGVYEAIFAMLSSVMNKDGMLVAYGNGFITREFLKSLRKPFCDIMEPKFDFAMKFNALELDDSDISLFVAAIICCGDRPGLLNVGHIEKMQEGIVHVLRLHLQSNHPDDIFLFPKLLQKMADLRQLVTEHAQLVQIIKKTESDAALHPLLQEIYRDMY

PPARγ = target: T2, PPARγ (Homo sapiens, UniProt P37231); conditions: cited from earlier work
T2 sequence (P37231 1-505): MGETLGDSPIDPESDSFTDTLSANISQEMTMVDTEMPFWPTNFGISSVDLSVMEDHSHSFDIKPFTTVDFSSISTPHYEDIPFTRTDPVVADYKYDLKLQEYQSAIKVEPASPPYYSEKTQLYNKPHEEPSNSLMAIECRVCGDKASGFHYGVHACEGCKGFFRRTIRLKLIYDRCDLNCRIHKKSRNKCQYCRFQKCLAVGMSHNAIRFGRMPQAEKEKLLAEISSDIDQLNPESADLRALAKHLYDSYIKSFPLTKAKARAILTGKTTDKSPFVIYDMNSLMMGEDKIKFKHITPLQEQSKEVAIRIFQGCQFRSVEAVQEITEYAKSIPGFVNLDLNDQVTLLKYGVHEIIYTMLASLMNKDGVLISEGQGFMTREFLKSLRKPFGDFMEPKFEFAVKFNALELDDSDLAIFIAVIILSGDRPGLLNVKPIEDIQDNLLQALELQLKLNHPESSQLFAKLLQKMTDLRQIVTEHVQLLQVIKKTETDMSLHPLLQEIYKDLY

[5] = tested on: peripheral mononuclear cells; conditions: cited from earlier work
PPARβ = target: T3, PPARβ (Homo sapiens, UniProt Q03181); conditions: cited from earlier work
T3 sequence (Q03181 1-441): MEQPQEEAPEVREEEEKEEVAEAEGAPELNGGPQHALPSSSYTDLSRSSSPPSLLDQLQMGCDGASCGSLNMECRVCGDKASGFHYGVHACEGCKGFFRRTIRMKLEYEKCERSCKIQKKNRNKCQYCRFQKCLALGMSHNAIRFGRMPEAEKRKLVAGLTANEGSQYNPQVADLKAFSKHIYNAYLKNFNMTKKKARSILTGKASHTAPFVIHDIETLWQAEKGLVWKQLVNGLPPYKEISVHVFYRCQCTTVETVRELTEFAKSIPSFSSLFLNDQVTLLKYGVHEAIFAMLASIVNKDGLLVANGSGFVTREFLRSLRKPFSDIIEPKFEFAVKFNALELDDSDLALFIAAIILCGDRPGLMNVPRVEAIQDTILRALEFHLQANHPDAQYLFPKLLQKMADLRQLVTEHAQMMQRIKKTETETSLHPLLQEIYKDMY

cancer cell lines = conditions: many cancer cell lines; cited from earlier work
interleukin-2 = conditions: cited from earlier work
[6] = tested on: mitochondrial β-oxidation in the liver; conditions: sulfur in 3, 5 or 7 position relative to carboxyl end; cited from earlier work

degradation time in vivo [1]: substantially increased degradation time
SMILES: CC#CCCCCCCCCCCCSCC [3-thia-15-heptadecyne]

SMILES: CCCCCCCCCCCCCCSCC(=O)O [TTA, tetradecylthioacetic acid]
plasma cholesterol and triacylglycerol levels [2]: decreases
effect on acyl-CoA oxidase activity (acyl-CoA oxidase): large increase
effect on plasma triacylglycerol level [3]: reduces plasma triacylglycerol level
hepatic and plasma content of monounsaturated fatty acids (mainly oleic acid) [4]: nearly doubled
polyunsaturated fatty acids (mainly linoleic acid and DHA) [4]: decreased
PPARα ligand (PPARα): potent ligands
PPARγ activation (PPARγ): activate
PHA stimulated proliferation of peripheral mononuclear cells [5]: suppressing
PPARβ activation (PPARβ): activate
proliferation of cancer cell lines (cancer cell lines): reduce proliferation
release of interleukin-2 (interleukin-2): depressing the release

SMILES: CCCCCCCCCCCCCCCC(=O)O [palmitic acid]
mitochondrial β-oxidation activity [6]: 0.47
